In US7671009B2, “Dermopharmaceutically and cosmetically active oligopeptides” (DSM IP Assets B.V., priority 2001, dated 2010):
*: point of attachment. Palmitoyl = CCCCCCCCCCCCCCCC(=O)*

Tested on: Collagen Synthesis Type I+III in Fibroblast Cell Cultures (ATCC CCL110)
Test: Stimulation of collagen synthesis type I+III in fibroblast cell cultures, Sirius Red microassay
Assay type: cell-based
Conditions: 24 hours incubation, control without active = 100%
Procedure: The collagen I and III content in fibroblasts is measured with the Sirius Red microassay. The quantitative determination of collagen is carried out after 24 hours of incubation with the corresponding oligopeptide derivatives. The extracellularly accumulated collagen is determined. Vitamin C and TGF-beta-1 are used as positive controls.
ATCC CCL110 fibroblasts are incubated in culture medium at a density of approx. 125,000 cells/well in 6-well cell culture plates for 2 days (37° C./5% CO2). Afterwards, the medium is discarded and washed twice with PBS, whereupon 1 ml of test medium with corresponding test substances is added. After incubation with test substance under culture conditions (37° C./5% CO2) for further 24 hours, the extracellular collagen is measured with the Sirius Red assay.
After the incubation period, the total volume of test medium (1 ml) is transferred into a flat-bottom 24-well plate and dried overnight at 55° C. The samples are fixed with 1 ml/well of Bouin's fluid for 1 hour at room temperature (RT). The fixing solution is discarded and the plates are washed 2-3 times with water. After drying of the plates, 1 ml of Sirius Red dye reagent is added.
The samples are shaken for 1 hour at RT on a microplate agitator at moderate intensity. Afterwards, the Sirius Red dye reagent is discarded and the plates are washed with 0.01N HCl. The tinted material is dissolved in 0.3 ml of 0.1N NaOH solution and shaken on a microplate agitator for 1 hour at RT.
200 μl of solution is transferred into a flat-bottom 96-well plate and the optical density is measured at 540 nm against 0.1N NaOH solution as the blank.
Culture medium: MEM+10% FCS+100 IU/ml penicillin+0.1 mg/ml streptomycin+1 mM non essential amino acids+1 mM Na-pyruvate+2 mM L-glutamine.
Test medium: DMEM without phenol red (AMIMED)+100 IU/ml penicillin+0.1 mg/ml streptomycin+80 μg/ml beta(β)-aminopropionitrile.
Vitamin C 100 mM (SIGMA A4034) is diluted to 50 μg/ml in the test medium.
Transforming growth factor TGFβ1 1 μg/ml (SIGMA T1654) is diluted to 0.1 ng/ml in the test medium.
The oligopeptide derivatives of the present invention are prepared in a regular concentration of 10 mM and diluted to 50 μM in the test medium.
Sirius Red F3BA dye reagent as the stock solution 1 mg/ml in saturated aqueous picric acid solution. Bouin's fluid: 15 ml of saturated aqueous picric acid solution+5 ml of formaldehyde+1 ml of acetic acid.

Row | Compound | collagen type I + III after 24 hours, Extracellular (test substance 50 μM) | also measured
1 | O=C1O[C@H]([C@@H](O)CO)C(O)=C1O [Vitamin C, reference compound] |  | collagen type I + III after 24 hours, Extracellular (Vitamin C positive control, diluted to 50 μg/ml in test medium): 128%
2 | H-Dab-Ser-OH × 2 TFA | 131% | 
3 | H-Lys-Thr-Thr-Dab-Ser-OH × 3 AcOH | 137% | 
4 | H-Lys-Thr-allo-Thr-Lys-Ser-OH × 3 AcOH | 134% | 
5 | H-Lys-allo-Thr-allo-Thr-Lys-Ser-OH × 3 AcOH | 139% | 
6 | Lipoyl-Lys (Lipoyl)-Thr-Thr-Lys (Lipoyl)-Ser-OH | 162% | 
7 | Palm-Lys-Thr-Ser-Lys-Ser-OH (Palmitoyl-KTSKS-OH; SMILES CCCCCCCCCCCCCCCC(=O)N[C@@H](CCCCN)C(=O)N[C@H](C(=O)N[C@@H](CO)C(=O)N[C@@H](CCCCN)C(=O)N[C@@H](CO)C(=O)O)[C@@H](C)O) | 128% | 
8 | TGFβ1: Transforming growth factor TGFβ1 (SIGMA T1654), positive control [reference compound] |  | collagen type I + III after 24 hours, Extracellular (0.1 ng/ml): 115%
